Values quoted from earlier work in patent US20150025006A1, “Pharmaceutical Combinations Including Anti-Inflammatory and Antioxidant Conjugates Useful for Treating Metabolic Disorders” (Genmedica Therapeutics SL, priority 2011, published 2015).

Experiments:
[1] = test system: Zucker fa/fa rats or ob/ob mice; conditions: 120 mg/kg/day, subcutaneous infusion, 3-4 weeks
[2] = test system: human diabetic patients; conditions: 4.5 g/day of salsalate

Row | Structure (SMILES) | anti-diabetic effects [1] | side effects, such as tinnitus, enhanced by [2] [%]
1 | O=C(O)c1ccccc1O [Salicylate] | anti-diabetic effects, reduction in fasting blood glucose, and glucose tolerance improvement | –
2 | O=C(Oc1ccccc1C(=O)O)c1ccccc1O [salsalate] | – | 66
